One experiment deals with human orexin-2 receptor (Homo sapiens (Human), UniProt O43614). Description: FLIPR Ca2+ Flux Assay, CHO cells expressing human orexin-2 receptor. The experiment is classed as cell-based. Particulars: agonist 70 pM Ala-6,12 human orexin-A, read-out: hOX2R FLIPR IC50. Here is the method:
(§1) The utility of the compounds in accordance with the present invention as orexin receptor OX1R and/or OX2R antagonists may be readily determined without undue experimentation by methodology well known in the art, including the “FLIPR Ca^2+ Flux Assay” (Okumura et al., Biochem. Biophys. Res. Comm. 280:976-981, 2001). In a typical experiment the OX1 and OX2 receptor antagonistic activity of the compounds of the present invention was determined in accordance with the following experimental method. For intracellular calcium measurements, Chinese hamster ovary (CHO) cells expressing the rat orexin-1 receptor or the human orexin-2 receptor, are grown in Iscove's modified DMEM containing 2 mM L-glutamine, […], 1% hypoxanthine-thymidine supplement, 100 U/ml penicillin, 100 μg/ml streptomycin and 10% heat-inactivated fetal calf serum (FCS). The cells are seeded at 20,000 cells/well into Becton-Dickinson black 384-well clear bottom sterile plates coated with poly-D-lysine. All reagents were from GIBCO-Invitrogen Corp. The seeded plates are incubated overnight at […]. and 5% CO2. Ala-6,12 human orexin-A as the agonist is prepared as a 1 mM stock solution in 1% bovine serum albumin (BSA) and diluted in assay buffer (HBSS containing 20 mM HEPES, 0.1% BSA and 2.5 mM probenecid, pH7.4) for use in the assay at a final concentration of 70 pM. Test compounds are prepared as 10 mM stock solution in DMSO, then diluted in 384-well plates, first in DMSO, then assay buffer. On the day of the assay, cells are washed 3 times with 100 μl assay buffer and then incubated for 60 min (37° C., 5% CO2) in 60 μl assay buffer containing 1 μM Fluo-4AM ester, 0.02% pluronic acid, and 1% BSA. The dye loading solution is then aspirated and cells are washed 3 times with 100 μl assay buffer. 30 μl of that same buffer is left in each well. Within the Fluorescent Imaging Plate Reader (FLIPR, Molecular Devices), test compounds are added to the plate in a volume of 25 μl, incubated for 5 min and finally 25 μl of agonist is added. Fluorescence is measured for each well at 1 second intervals for 5 minutes and the height of each fluorescence peak is compared to the height of the fluorescence peak induced by 70 pM Ala-6,12 orexin-A with buffer in place of antagonist. For each antagonist, IC50 value (the concentration of compound needed to inhibit 50% of the agonist response) is determined. Alternatively, compound potency can be assessed by a radioligand binding assay (described in Bergman et. al. Bioorg. Med. Chem. Lett. 2008, 18, 1425-1430) in which the inhibition constant (Ki) is determined in membranes prepared from CHO cells expressing either the OX1 or OX2 receptor. The intrinsic orexin receptor antagonist activity of a compound which may be used in the present invention may be determined by these assays.
Background: Calcium assays in cells follow changes in intracellular calcium, usually with a dye or a luminescent sensor.

Another experiment has as its target rat orexin-1 receptor (Rattus norvegicus, UniProt P56718). Description: FLIPR Ca2+ Flux Assay, CHO cells expressing rat orexin-1 receptor. The experiment is classed as cell-based. Particulars: agonist 70 pM Ala-6,12 human orexin-A, text says rat orexin-1 receptor, read-out: hOX1R FLIPR IC50. The protocol: as §1

The record followed here is patent US9624197B2, “2-pyridylamino-4-nitrile-piperidinyl orexin receptor antagonists” (MERCK SHARP & DOHME CORP., priority 2012, dated 2017).

Usually IC50 stands for the point on the concentration scale where inhibition reaches its midpoint.

Bounds are passed on as bounds.

Chain of human orexin-2 receptor (O43614 whole entry): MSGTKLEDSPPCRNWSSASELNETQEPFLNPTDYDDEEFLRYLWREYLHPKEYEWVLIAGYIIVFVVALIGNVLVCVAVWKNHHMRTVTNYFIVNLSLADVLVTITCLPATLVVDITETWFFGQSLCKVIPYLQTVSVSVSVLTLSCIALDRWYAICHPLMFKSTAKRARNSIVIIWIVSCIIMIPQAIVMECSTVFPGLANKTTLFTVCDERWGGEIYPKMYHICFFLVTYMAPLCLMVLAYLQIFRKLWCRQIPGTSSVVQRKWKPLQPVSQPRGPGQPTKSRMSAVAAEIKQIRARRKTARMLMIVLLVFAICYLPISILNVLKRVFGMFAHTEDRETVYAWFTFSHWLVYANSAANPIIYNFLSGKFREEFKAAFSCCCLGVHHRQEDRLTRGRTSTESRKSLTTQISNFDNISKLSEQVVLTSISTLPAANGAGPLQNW

In the case of `C[C@@H]1CC[C@@H](Nc2cc(C#N)ccn2)CN1C(=O)c1ccccc1-n1nccn1` [Example 1, 2-(((3R,6R)-1-(2-(2H-1,2,3-Triazol-2-yl)benzoyl)-6-methylpiperidin-3-yl)amino)isonicotinonitrile], the results for the IC50 on human orexin-2 receptor and on rat orexin-1 receptor were 29 nM and 1740 nM, respectively.

`COc1c(C#N)ccnc1N[C@@H]1CC[C@@H](C)N(C(=O)c2ccccc2-n2nccn2)C1` [Example 2, 3-methoxy-2-{[(3R,6R)-6-methyl-1-{[2-(2H-1,2,3-triazol-2-yl)phenyl]carbonyl}piperidin-3-yl]amino}pyridine-4-carbonitrile]: the half-inhibitory concentration (IC50) was 11 nM at human orexin-2 receptor and 267 nM on rat orexin-1 receptor. Taken in the same sequence, the figures for `C[C@@H]1CC[C@@H](Nc2cc(C#N)ccn2)CN1C(=O)c1ccccc1-n1ncnn1` [Example 3, 2-(((3R,6R)-1-(2-(2H-Tetrazol-2-yl)benzoyl)-6-methylpiperidin-3-yl)amino)isonicotinonitrile] were 9 nM and 1920 nM. Taken in the same sequence, the figures for `Cc1c(C#N)ccnc1N[C@@H]1CC[C@@H](C)N(C(=O)c2ccccc2-n2nccn2)C1` [Example 4, 2-(((3R,6R)-1-(2-(2H-1,2,3-Triazol-2-yl)benzoyl)-6-methylpiperidin-3-yl)amino)-3-methylisonicotinonitrile] were 7 nM and 745 nM. Take `Cc1c(C#N)ccnc1N[C@@H]1CC[C@@H](C)N(C(=O)c2ccccc2-n2ncnn2)C1` [Example 5, 3-methyl-2-{[(3R,6R)-6-methyl-1-{[2-(2H-tetrazol-2-yl)phenyl]-carbonyl}-piperidin-3-yl]amino}pyridine-4-carbonitrile]: the half-inhibitory concentration (IC50) was 7 nM at human orexin-2 receptor and 1150 nM on rat orexin-1 receptor.

As for `COc1c(C#N)ccnc1N[C@@H]1CC[C@@H](C)N(C(=O)c2ccsc2-n2nccn2)C1` [Example 6, 2-((3R,6R)-1-(2-(2H-1,2,3-Triazol-2-yl)thiophene-3-carbonyl)-6-methylpiperidin-3-ylamino)-3-methoxyisonicotinonitrile], the IC50 at human orexin-2 receptor is 11 nM; on rat orexin-1 receptor, 827 nM. The matching figures for `COc1c(C#N)ccnc1N[C@@H]1CC[C@@H](C)N(C(=O)c2ccsc2-c2ncccn2)C1` [Example 7, 3-methoxy-2-((3R,6R)-6-methyl-1-(2-(pyrimidin-2-yl)thiophene-3-carbonyl)piperidin-3-ylamino)isonicotinonitrile]: 47 nM and 384 nM. Taken in the same sequence, the figures for `C[C@@H]1CC[C@@H](N(C)c2cc(C#N)ccn2)CN1C(=O)c1ccccc1-n1nccn1` [Example 8, 2-(((3R,6R)-1-(2-(2H-1,2,3-Triazol-2-yl)benzoyl)-6-methylpiperidin-3-yl)(methyl)amino)isonicotinonitrile] were 20 nM and 2050 nM. The matching figures for `C[C@@H]1CC[C@@H](N(C)c2cc(C#N)ccn2)CN1C(=O)c1ccccc1-n1ncnn1` [Example 9, 2-{methyl[(3R,6R)-6-methyl-1-{[2-(2H-tetrazol-2-yl)phenyl]-carbonyl}piperidin-3-yl]amino}pyridine-4-carbonitrile]: 32 nM and 2240 nM.

As for `COc1c(C#N)ccnc1N(C)[C@@H]1CC[C@@H](C)N(C(=O)c2ccsc2-n2nccn2)C1` [Example 10, 3-methoxy-2-{methyl[(3R,6R)-6-methyl-1-{[2-(2H-1,2,3-triazol-2-yl)thiophen-3-yl]carbonyl}piperidin-3-yl]amino}pyridine-4-carbonitrile], the concentration for half-maximal inhibition (IC50) is 39 nM on human orexin-2 receptor and more than 10000 nM on rat orexin-1 receptor.

`COc1c(C#N)ccnc1N(C)[C@@H]1CC[C@@H](C)N(C(=O)c2ccsc2-c2ncccn2)C1` [Example 11, 3-methoxy-2-(methyl{(3R,6R)-6-methyl-1-[(2-pyrimidin-2-ylthiophen-3-yl)carbonyl]piperidin-3-yl}amino)pyridine-4-carbonitrile]: the values for the IC50 on human orexin-2 receptor and at rat orexin-1 receptor were 34 nM and more than 10000 nM, respectively. `CCN(c1cc(C#N)ccn1)[C@@H]1CC[C@@H](C)N(C(=O)c2ccccc2-n2nccn2)C1` [Example 12, 2-{ethyl[(3R,6R)-6-methyl-1-{[2-(2H-1,2,3-triazol-2-yl)phenyl]carbonyl}piperidin-3-yl]amino}-pyridine-4-carbonitrile]: the IC50 on human orexin-2 receptor came to 23 nM; at rat orexin-1 receptor it was 1990 nM. Take `C=CCN(c1cc(C#N)ccn1)[C@@H]1CC[C@@H](C)N(C(=O)c2ccccc2-n2nccn2)C1` [Example 13, 2-{[(3R,6R)-6-methyl-1-{[2-(2H-1,2,3-triazol-2-yl)phenyl]carbonyl}piperidin-3-yl](prop-2-en-1-yl)amino}pyridine-4-carbonitrile]: the IC50 at human orexin-2 receptor amounted to 23 nM; at rat orexin-1 receptor, 2550 nM.

For the molecule `CCCN(c1cc(C#N)ccn1)[C@@H]1CC[C@@H](C)N(C(=O)c2ccccc2-n2nccn2)C1` [Example 14, 2-{[(3R,6R)-6-methyl-1-{[2-(2H-1,2,3-triazol-2-yl)phenyl]carbonyl}piperidin-3-yl](propyl)-amino}pyridine-4-carbonitrile], the IC50 at human orexin-2 receptor worked out at 13 nM; at rat orexin-1 receptor, 330 nM. With `CC(=O)N(c1cc(C#N)ccn1)[C@@H]1CC[C@@H](C)N(C(=O)c2ccccc2-n2nccn2)C1` [Example 15, N-((3R,6R)-1-(2-(2H-1,2,3-Triazol-2-yl)benzoyl)-6-methylpiperidin-3-yl)-N-(4-cyanopyridin-2-yl)acetamide], the IC50 on rat orexin-1 receptor is more than 10000 nM.
